Test results: patent US5622962A, “5α-reductase inhibitors” (priority 1995, dated 1997)

Legend:
[1] = biological target: T1, Type I 5α-Reductase from Human Scalp (Homo sapiens, UniProt P18405); experiment: Human Type I 5α-reductase assay (conversion of [3H]-testosterone to 5α-reduced metabolites); type: biochemical; conditions: pH 7.5, 0.3 μM; 50 nM [3H]-testosterone, pH 7.5, 25°, 180 min; compared to control reaction mixtures; read-out: percent inhibition of Type I AR
T1 construct: Scalp punch biopsies from graft recipient sites were obtained from human hair transplant procedures; from tissue; host or cells: human scalp punch biopsies (hair transplant graft recipient sites), homogenate, 100,000×g pellet
T1 sequence (P18405 1-259): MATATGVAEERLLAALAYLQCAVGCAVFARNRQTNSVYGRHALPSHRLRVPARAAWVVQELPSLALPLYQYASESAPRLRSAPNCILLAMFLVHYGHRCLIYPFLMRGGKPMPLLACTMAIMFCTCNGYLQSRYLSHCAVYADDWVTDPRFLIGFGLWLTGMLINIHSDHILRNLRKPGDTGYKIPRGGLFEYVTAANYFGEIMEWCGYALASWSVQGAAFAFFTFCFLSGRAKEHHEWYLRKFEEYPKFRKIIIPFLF

[2] = biological target: T2, Type II 5α-Reductase from Human Prostate (Homo sapiens, UniProt P31213); experiment: Human Type II 5α-reductase assay (conversion of [3H]-testosterone to 5α-reduced metabolites); type: biochemical; conditions: pH 5.5, 0.3 μM; sodium acetate pH 5.5, 25°, 30 min; compared to control reaction mixtures; read-out: percent inhibition of Type II AR
T2 construct: The same procedure as above was used for preparations using tissue from prostate surgery; from tissue; host or cells: human prostate tissue from surgery, homogenate, 100,000×g pellet
T2 sequence (P31213 1-254): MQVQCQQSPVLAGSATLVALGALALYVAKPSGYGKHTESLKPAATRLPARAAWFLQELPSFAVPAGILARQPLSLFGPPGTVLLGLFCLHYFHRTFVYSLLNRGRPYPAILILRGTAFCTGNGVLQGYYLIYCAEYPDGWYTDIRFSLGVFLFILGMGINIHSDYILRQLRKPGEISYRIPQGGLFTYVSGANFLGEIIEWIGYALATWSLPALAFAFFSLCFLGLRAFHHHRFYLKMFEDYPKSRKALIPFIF

| inhibition at 0.3 µM [1] | inhibition at 0.3 µM [2] | Compound |
| --- | --- | --- |
| 13% | 32% | CN1C(=O)CC[C@]2(C)c3ccc(C(=O)NCc4ccccc4)cc3CC[C@@H]12 [Example 146, (+)-(4aR)-(10bR)-4-methyl-8-(benzylcarboxamido)-10b-methyl-1,2,3,4,4a,5,6,10b-octahydrobenzo[f]quinolin-3-one] |
| 77% | 10% | CN1C(=O)CC[C@]2(C)c3ccc(-c4cccc(C(F)(F)F)c4F)cc3CC[C@@H]12 [Example 208, (+)-(4aR)-(10bR)-4-methyl-8-(2-fluoro-3-trifluoromethyl-phenyl)-10b-methyl-1,2,3,4,4a,5,6,10b-octahydrobenzo[f]-quinolin-3-one] |
| 38% | 18% | CN1C(=O)CC[C@]2(C)c3ccc(-c4nc5ccccc5[nH]4)cc3CC[C@@H]12 [Example 256, (+)-(4aR)-(10bR)-4-methyl-8-(2-benzimidazolyl)-10b-methyl-1,2,3,4,4a,5,6,10b-octahydrobenzo[f]quinolin-3-one] |
| 49% | 71% | CN1C(=O)CC[C@]2(C)c3ccc(Sc4cnc5ccccc5n4)cc3CC[C@@H]12 [Example 153, (+)-(4aR)-(10bR)-4-methyl-8-(2-quinoxalinylthio)-10b-methyl-1,2,3,4,4a,5,6,10b-octahydrobenzo[f]quinolin-3-one] |
| 90% | 71% | CN1C(=O)CC[C@]2(C)c3ccc(SC(c4ccccc4)c4ccccc4)cc3CC[C@@H]12 [Example 195, (4aR)-(10bR)-8-diphenylmethylthio-4,10b-dimethyl-1,2,3,4,4a,5,6,10b-octahydrobenzo[f]-quinoline-3-one] |
| 28% | 12% | CN1C(=O)CC[C@]2(C)c3ccc(-c4ccncc4)cc3CC[C@@H]12 [Example 235, (+)-(4aR)-(10bR)-4-methyl-8-(4-pyridinyl)-10b-methyl-1,2,3,4,4a,5,6,10b-octahydrobenzo[f]quinolin-3-one] |
| 11% | 23% | Cc1ccc(Sc2ccc3c(c2)CC[C@H]2NC(=O)CC[C@]32C)cc1 [Example 6, (+)-(4aR)-(10bR)-8-(4-methylphenylthio)-10b-methyl-1,2,3,4,4a,5,6,10b-octahydrobenzo [f]quinolin-3-one] |
| 63% | 40% | CN1C(=O)CC[C@]2(C)c3ccc(-c4ccc(C(C)(C)C)cc4)cc3CC[C@@H]12 [Example 75, (+)-(4aR)-(10bR)-4-methyl-8-(4-t-butylphenyl)-10b-methyl-1,2,3,4,4a,5,6,10b-octahydrobenzo[f]quinolin-3-one] |
| 60% | 32% | CN1C(=O)CC[C@]2(C)c3ccc(-c4ccc5ccccc5n4)cc3CC[C@@H]12 [Example 247, (+)-(4aR)-(10bR)-4-methyl-8-(2-quinolinyl)-10b-methyl-1,2,3,4,4a,5,6,10b-octahydrobenzo[f]quinolin-3-one] |
| 29% | 19% | C[C@]12CCC(=O)N[C@@H]1CCc1cc(Sc3ccccc3F)ccc12 [Example 17, (+)-(4aR)-(10bR)-8-(2-fluorophenylthio)-10b-methyl-1,2,3,4,4a,5,6,10b-octahydrobenzo[f]quinolin-3-one] |
| 44% | 0% | C[C@]12CCC(=O)N[C@@H]1CCc1cc(Sc3ccc(Cl)cc3)ccc12 [Example 5, (+)-(4aR)-(10bR)-8-(4-chlorophenylthio)-10b-methyl-1,2,3,4,4a,5,6,10b-octahydrobenzo [f]quinolin-3-one] |
| 84% | 19% | CN1C(=O)CC[C@]2(C)c3ccc(Sc4nc5c(C(C)(C)C)ccc(C(C)(C)C)c5s4)cc3CC[C@@H]12 [Example 189, (+)-(4aR)-(10bR)-4-methyl-8-[4,7-di(t-butyl)-2-benzothiazolylthio]-10b-methyl-1,2,3,4,4a,5,6,10b-octahydrobenzo[f]-quinolin-3-one] |
| 64% | 36% | CN1C(=O)CC[C@]2(C)c3ccc(-c4ccccc4C#N)cc3CC[C@@H]12 [Example 125, (+)-(4aR)-(10bR)-4-methyl-8-(2-cyanophenyl)-10b-methyl-1,2,3,4,4a,5,6,10b-octahydrobenzo[f]quinolin-3-one] |
| 59% | 30% | CN1C(=O)CC[C@]2(C)c3ccc(Sc4nsc5ccccc45)cc3CC[C@@H]12 [Example 180, (+)-(4aR)-(10bR)-4-methyl-8-(3-[1,2-benzisothiazolyl]thio)-10b-methyl-1,2,3,4,4a,5,6,10b-octahydrobenzo[f]quinolin-3-one] |
| 11% | 22% | COc1ccc(Sc2ccc3c(c2)CC[C@H]2NC(=O)CC[C@]32C)cc1 [Example 13, (+)-(4aR)-(10bR)-8-(4-methoxyphenylthio)-10b-methyl-1,2,3,4,4a,5,6,10b-octahydrobenzo[f]quinolin-3-one] |
| 97% | 73% | CN1C(=O)CC[C@]2(C)c3ccc(Sc4cccc5cccnc45)cc3CC[C@@H]12 [Example 110, (4aR)-(10bR)-4,10b-dimethyl-8-(8-quinolinylthio)-1,2,3,4,4a,5,6,10b-octahydrobenzo[f]quinolin-3-one] |
| 88% | 79% | CC(C)c1cccc2sc(Sc3ccc4c(c3)CC[C@H]3N(C)C(=O)CC[C@]43C)nc12 [Example 157, (+)-(4aR)-(10bR)-4-methyl-8-(2-[4-isopropyl]benzothiazolylthio)-10b-methyl-1,2,3,4,4a,5,6,10b-octahydrobenzo[f]-quinolin-3-one] |
| 82% | 80% | CN1C(=O)CC[C@]2(C)c3ccc(Sc4ccc5cccc(F)c5n4)cc3CC[C@@H]12 [Example 174, (+)-(4aR)-(10bR)-4-methyl-8-(8-fluoro-2-quinolinylthio)-10b-methyl-1,2,3,4,4a,5,6,10b-octahydrobenzo[f]quinolin-3-one] |
| 54% | 22% | CN1C(=O)CC[C@]2(C)c3ccc(-c4ccc5oc(=O)ccc5c4)cc3CC[C@@H]12 [Example 248, (+)-(4aR)-(10bR)-4-methyl-8-(2-oxo-1-benzopyran-6-yl)-10b-methyl-1,2,3,4,4a,5,6,10b-octahydrobenzo[f]quinolin-3-one] |
| 86% | 49% | CN1C(=O)CC[C@]2(C)c3ccc(-c4nc5c(F)cccc5s4)cc3CC[C@@H]12 [Example 261, (+)-(4aR)-(10bR)-4-methyl-8-(2-[4-fluoro]benzothiazolyl)-10b-methyl-1,2,3,4,4a,5,6,10b-octahydrobenzo[f]quinolin-3-one] |
| 90% | 35% | Cc1ccccc1-c1ccc2c(c1)CC[C@H]1N(C)C(=O)CC[C@]21C [Example 40, (+)-(4aR)-(10bR)-4-methyl-8-(2-methylphenyl)-10b-methyl-1,2,3,4,4a,5,6,10b-octahydrobenzo[f]quinolin-3-one] |
| 22% | 40% | Cc1cccc(Sc2ccc3c(c2)CC[C@H]2NC(=O)CC[C@]32C)c1 [Example 10, (+)-(4aR)-(10bR)-8-(3-methylphenylthio)-10b-methyl-1,2,3,4,4a,5,6,10b-octahydrobenzo[f]quinolin-3-one] |
